Measured values from ChEMBL document CHEMBL1140755, “Interaction of aliphatic cap group in inhibition of histone deacetylases by cyclic tetrapeptides” (Bioorg Med Chem, 2008).
Non-standard residues stand in square brackets, D forms with d. Residues, ends and D or L forms follow the SMILES beside them. Ahp(7-SS(2-pyridyl)) = N[C@@H](CCCCCSSc1ccccn1)C(=O)O; Aib = CC(C)(N)C(=O)O

How the values were obtained:
[1] = target: T1, Protein deacetylase HDAC6 (Homo sapiens, UniProt Q9UBN7); assay: Inhibition of HDAC6 expressed in 293T cells; format: cell-based
T1 sequence (Q9UBN7 whole entry): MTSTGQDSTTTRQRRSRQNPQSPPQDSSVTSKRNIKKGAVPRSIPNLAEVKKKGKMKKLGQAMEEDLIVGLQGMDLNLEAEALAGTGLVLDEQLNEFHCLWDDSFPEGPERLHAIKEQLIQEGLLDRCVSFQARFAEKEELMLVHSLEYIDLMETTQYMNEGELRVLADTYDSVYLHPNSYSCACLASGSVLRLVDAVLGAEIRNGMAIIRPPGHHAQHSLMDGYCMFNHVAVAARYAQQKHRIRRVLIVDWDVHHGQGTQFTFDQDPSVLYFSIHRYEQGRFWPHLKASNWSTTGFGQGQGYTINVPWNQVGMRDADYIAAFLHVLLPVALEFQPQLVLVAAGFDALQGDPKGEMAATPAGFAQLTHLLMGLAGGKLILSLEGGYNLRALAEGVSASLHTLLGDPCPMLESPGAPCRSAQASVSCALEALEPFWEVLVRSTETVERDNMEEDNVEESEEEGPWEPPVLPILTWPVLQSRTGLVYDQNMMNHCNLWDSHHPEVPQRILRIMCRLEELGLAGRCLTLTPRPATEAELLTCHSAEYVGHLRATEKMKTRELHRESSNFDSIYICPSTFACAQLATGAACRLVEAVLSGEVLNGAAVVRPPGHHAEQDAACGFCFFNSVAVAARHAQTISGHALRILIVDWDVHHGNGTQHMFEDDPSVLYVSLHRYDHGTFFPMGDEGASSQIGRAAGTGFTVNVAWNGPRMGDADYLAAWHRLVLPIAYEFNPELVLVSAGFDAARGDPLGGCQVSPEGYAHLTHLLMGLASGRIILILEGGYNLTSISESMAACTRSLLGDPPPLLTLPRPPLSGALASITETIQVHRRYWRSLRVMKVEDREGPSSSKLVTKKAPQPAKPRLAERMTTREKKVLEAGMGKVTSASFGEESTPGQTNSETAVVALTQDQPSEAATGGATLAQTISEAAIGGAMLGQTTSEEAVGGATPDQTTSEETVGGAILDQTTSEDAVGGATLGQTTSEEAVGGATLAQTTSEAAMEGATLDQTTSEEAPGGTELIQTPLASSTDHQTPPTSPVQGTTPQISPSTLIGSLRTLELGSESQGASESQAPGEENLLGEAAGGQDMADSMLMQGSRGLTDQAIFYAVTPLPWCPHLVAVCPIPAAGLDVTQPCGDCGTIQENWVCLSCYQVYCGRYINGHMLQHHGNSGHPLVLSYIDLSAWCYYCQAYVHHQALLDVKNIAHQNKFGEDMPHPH

Histone deacetylase 4 = Histone deacetylase 4 (Homo sapiens, UniProt P56524); assay: Inhibition of HDAC4 expressed in 293T cells; format: cell-based
Sequence of Histone deacetylase 4 (P56524 whole entry): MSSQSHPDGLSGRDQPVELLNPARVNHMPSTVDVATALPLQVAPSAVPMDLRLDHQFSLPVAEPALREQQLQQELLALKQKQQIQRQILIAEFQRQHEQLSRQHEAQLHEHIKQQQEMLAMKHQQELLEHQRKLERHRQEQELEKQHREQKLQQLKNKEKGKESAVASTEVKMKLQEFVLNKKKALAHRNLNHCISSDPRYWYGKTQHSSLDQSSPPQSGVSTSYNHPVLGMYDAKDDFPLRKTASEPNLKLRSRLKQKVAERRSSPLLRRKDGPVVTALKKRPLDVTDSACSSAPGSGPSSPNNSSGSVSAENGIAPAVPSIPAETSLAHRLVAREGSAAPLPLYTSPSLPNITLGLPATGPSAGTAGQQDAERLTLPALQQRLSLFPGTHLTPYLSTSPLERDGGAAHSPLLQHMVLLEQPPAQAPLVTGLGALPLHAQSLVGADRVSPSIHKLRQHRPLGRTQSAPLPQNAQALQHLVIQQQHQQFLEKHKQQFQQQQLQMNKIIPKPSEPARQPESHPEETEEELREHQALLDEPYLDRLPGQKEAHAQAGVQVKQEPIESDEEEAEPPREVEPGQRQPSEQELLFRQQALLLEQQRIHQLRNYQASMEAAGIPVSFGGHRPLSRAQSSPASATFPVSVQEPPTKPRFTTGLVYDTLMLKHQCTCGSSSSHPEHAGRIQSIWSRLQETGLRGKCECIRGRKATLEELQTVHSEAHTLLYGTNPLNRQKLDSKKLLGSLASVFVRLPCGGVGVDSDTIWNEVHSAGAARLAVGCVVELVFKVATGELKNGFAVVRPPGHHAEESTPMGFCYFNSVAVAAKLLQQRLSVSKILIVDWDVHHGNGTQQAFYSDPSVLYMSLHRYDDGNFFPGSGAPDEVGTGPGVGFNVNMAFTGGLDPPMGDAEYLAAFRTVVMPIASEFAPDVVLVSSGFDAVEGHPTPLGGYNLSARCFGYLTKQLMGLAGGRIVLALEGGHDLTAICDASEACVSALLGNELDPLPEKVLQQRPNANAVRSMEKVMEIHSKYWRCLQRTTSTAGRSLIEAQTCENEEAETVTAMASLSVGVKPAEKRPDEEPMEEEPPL

Histone deacetylase 1 = Histone deacetylase 1 (Homo sapiens, UniProt Q13547); assay: Inhibition of HDAC1 expressed in 293T cells; format: cell-based
Sequence of Histone deacetylase 1 (Q13547 whole entry): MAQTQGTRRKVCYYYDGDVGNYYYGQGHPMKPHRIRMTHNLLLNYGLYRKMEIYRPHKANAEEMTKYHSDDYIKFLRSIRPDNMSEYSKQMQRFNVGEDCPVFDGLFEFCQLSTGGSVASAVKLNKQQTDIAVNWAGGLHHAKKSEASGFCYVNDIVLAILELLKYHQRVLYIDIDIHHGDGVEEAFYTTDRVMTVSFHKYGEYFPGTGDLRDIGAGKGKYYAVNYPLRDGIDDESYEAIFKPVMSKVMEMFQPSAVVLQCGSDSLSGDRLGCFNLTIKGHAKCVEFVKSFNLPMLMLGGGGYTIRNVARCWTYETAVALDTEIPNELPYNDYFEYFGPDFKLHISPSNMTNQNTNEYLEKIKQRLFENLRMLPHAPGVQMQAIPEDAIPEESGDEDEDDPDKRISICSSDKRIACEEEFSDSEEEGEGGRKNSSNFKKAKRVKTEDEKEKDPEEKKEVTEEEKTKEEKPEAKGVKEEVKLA

[2] = Selectivity of IC50 for HDAC6 to IC50 for HDAC1

Structure (SMILES)	IC50 [1]	IC50 (Histone deacetylase 4)	IC50 (Histone deacetylase 1)	Ratio IC50 [2]
O=C1N[C@@H]2CCCCCCCCCCCC[C@H](NC2=O)C(=O)N2CCC[C@@H]2C(=O)N[C@H]1CCCCCSSc1ccccn1	4900 nM	20 nM	35 nM	140
CC1(C)NC(=O)[C@H](CCCCCSSc2ccccn2)NC(=O)[C@H]2CCCN2C(=O)[C@H](Cc2ccccc2)NC1=O (cyclo([Aib]F[dP][Ahp(7-SS(2-pyridyl))]))	404 nM	18 nM	39 nM	10.3
C[C@@H]1NC(=O)C(C)(C)NC(=O)[C@H](CCCCCSSc2ccccn2)NC(=O)[C@H]2CCCN2C1=O (cyclo(A[dP][Ahp(7-SS(2-pyridyl))][Aib]))	430 nM	52 nM	94 nM	
CCCC[C@@H]1NC(=O)C(C)(C)NC(=O)[C@H](CCCCCSSc2ccccn2)NC(=O)[C@H]2CCCN2C1=O	280 nM	24 nM	38 nM	
CC(C)C[C@@H]1NC(=O)C(C)(C)NC(=O)[C@H](CCCCCSSc2ccccn2)NC(=O)[C@H]2CCCN2C1=O	230 nM	33 nM	58 nM	
CC[C@H](C)[C@@H]1NC(=O)C(C)(C)NC(=O)[C@H](CCCCCSSc2ccccn2)NC(=O)[C@H]2CCCN2C1=O	310 nM	23 nM	38 nM	
